Values of other authors as cited in patent publication US20260218090A1, “A LOW-TEMPERATURE, CAUSTIC DISHWARE […]” (priority 2023, published 2026).
Where two headings read alike, the source gives them in different places.

Experiments:
S. aureus = conditions: NaOH 0.1 M (4,000 ppm); 4 or 22 °C; detection limit less than 3 organisms/mL; cited from earlier work
E. coli = conditions: NaOH 0.01 M (400 ppm); 4 or 22 °C; detection limit less than 3 organisms/mL; cited from earlier work
A. niger = conditions: NaOH 0.5 M (20,000 ppm); 4 or 22 °C; detection limit less than 3 organisms/mL; cited from earlier work
C. albicans = conditions: NaOH 0.5 M (20,000 ppm); 4 or 22 °C; detection limit less than 3 organisms/mL; cited from earlier work
B. subtilis spores = conditions: NaOH 1.0 M (40,000 ppm), cited from earlier work
P. aeruginosa = conditions: NaOH 0.5 M (20,000 ppm); 22 °C; detection limit less than 3 organisms/mL; cited from earlier work

[Na+].[OH-] [NaOH, sodium hydroxide]
Time for reduction of the organism below the detection limit (S. aureus): 1 h
Time for reduction of the organism below the detection limit (E. coli): 2 h
Time for reduction of the organism below the detection limit (A. niger): 1 h
Time for reduction of the organism below the detection limit (C. albicans): 1 h
Time for reduction of the organism below the detection limit (B. subtilis spores; 4 °C, detection limit less than 100 organisms/mL): 8 days
Time for reduction of the organism below the detection limit (B. subtilis spores; 22 °C, detection limit 10 organisms/mL): 2 days
Time for reduction of the organism below the detection limit (P. aeruginosa): 1 h
